Here are results for one molecule from publication PMC9040678, “Sequence-specific capture and concentration of viral RNA by type III CRISPR system enhances diagnostic” (Research Square, 2022).

The structures appear in SMILES notation.

This assay concerns the target T1, TtCan1 (Thermus thermophilus, UniProt Q53W14).
T1 construct: gene TTHB155; codon-optimised synthetic gene, E. coli BL21(DE3); N-terminal His6-TwinStrep-SUMO tag removed; monomeric
T1 sequence (Q53W14 1-636): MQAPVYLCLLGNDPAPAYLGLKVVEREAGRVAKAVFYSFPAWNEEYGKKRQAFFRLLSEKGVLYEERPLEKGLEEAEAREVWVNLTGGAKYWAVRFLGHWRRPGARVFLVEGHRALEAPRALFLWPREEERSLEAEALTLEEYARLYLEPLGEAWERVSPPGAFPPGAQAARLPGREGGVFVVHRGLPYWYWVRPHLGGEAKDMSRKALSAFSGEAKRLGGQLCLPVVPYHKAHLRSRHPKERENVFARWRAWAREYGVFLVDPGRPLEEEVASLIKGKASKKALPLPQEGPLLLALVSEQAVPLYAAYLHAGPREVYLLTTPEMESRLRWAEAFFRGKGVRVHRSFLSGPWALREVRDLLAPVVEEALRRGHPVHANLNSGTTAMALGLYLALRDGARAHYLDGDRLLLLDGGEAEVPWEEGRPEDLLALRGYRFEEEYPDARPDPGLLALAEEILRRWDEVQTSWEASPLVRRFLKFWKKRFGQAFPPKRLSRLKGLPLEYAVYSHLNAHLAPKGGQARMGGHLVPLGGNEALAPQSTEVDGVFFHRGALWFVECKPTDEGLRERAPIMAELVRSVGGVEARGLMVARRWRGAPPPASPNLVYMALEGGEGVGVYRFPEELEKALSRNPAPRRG
Description: ssRNA cleavage, denaturing PAGE; fluorescent RNA reporters. Particulars: allosteric activator of ssRNase activity; 200 nM enzyme, 20 nM cA4, pH 7.8, 60 °C. The format is biochemical.

Consider `Nc1ncnc2c1ncn2[C@@H]1O[C@@H]2COP(=O)(O)O[C@H]3[C@@H](O)[C@H](n4cnc5c(N)ncnc54)O[C@@H]3COP(=O)(O)O[C@H]3[C@@H](O)[C@H](n4cnc5c(N)ncnc54)O[C@@H]3COP(=O)(O)O[C@H]3[C@@H](O)[C@H](n4cnc5c(N)ncnc54)O[C@@H]3COP(=O)(O)O[C@H]2[C@H]1O` [cA4], for which the “ssRNA cleavage, denaturing PAGE; fluorescent RNA reporters” value is recorded as “TtCan1 is a cA4-dependent single-stranded RNase (ssRNA) but does not cleave ssDNA”.
